For ten compounds, inhibition results are on record in publication PMC9927415, “Tyrosine Kinase Inhibitors Display Potent Activity against Cryptosporidium parvum” (Microbiology Spectrum, 2022).

Each structure is given as a SMILES string.

Assay [1] concerns the target T1, TNIK (Homo sapiens, UniProt Q9UKE5).
T1 construct: purchased DiscoverX (KINOMEscan)
In words: KINOMEscan competitive binding. The conditions noted are these: n=1, read-out: Percent inhibition, TNIK.

Assay [2] concerns the target T2, PIM1 (Homo sapiens, UniProt P11309).
T2 construct: purchased DiscoverX (KINOMEscan)
In words: KINOMEscan competitive binding. Particulars: n=1, read-out: Percent inhibition, PIM1.

Assay [3] addresses T3, ROS1 (Homo sapiens, UniProt P08922).
T3 construct: purchased DiscoverX (KINOMEscan)
The assay can be described thus: KINOMEscan competitive binding. Particulars: n=1, read-out: Percent inhibition, ROS1.

Assay [4] addresses T4, panel of 203 kinases (Homo sapiens, UniProt P27037).
T4 construct: purchased DiscoverX (KINOMEscan)
The assay can be described thus: KINOMEscan competitive binding, whole panel. Particulars: 10 µM, n=1; kinase ACVR2A; read-out: Percent inhibition ACVR2A. Summed up:
(§1)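 Kinases were expressed as T7 bacteriophage fusions, and test compounds competed with immobilized ATP-site probe ligands for binding. Kinase remaining bound to the solid-support probe was quantified, and values are given as percentage inhibition.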

Assay [5] deals with T5, panel of 203 kinases (Homo sapiens, UniProt P54753).
T5 construct: purchased DiscoverX (KINOMEscan)
T5 sequence (P54753 34-998): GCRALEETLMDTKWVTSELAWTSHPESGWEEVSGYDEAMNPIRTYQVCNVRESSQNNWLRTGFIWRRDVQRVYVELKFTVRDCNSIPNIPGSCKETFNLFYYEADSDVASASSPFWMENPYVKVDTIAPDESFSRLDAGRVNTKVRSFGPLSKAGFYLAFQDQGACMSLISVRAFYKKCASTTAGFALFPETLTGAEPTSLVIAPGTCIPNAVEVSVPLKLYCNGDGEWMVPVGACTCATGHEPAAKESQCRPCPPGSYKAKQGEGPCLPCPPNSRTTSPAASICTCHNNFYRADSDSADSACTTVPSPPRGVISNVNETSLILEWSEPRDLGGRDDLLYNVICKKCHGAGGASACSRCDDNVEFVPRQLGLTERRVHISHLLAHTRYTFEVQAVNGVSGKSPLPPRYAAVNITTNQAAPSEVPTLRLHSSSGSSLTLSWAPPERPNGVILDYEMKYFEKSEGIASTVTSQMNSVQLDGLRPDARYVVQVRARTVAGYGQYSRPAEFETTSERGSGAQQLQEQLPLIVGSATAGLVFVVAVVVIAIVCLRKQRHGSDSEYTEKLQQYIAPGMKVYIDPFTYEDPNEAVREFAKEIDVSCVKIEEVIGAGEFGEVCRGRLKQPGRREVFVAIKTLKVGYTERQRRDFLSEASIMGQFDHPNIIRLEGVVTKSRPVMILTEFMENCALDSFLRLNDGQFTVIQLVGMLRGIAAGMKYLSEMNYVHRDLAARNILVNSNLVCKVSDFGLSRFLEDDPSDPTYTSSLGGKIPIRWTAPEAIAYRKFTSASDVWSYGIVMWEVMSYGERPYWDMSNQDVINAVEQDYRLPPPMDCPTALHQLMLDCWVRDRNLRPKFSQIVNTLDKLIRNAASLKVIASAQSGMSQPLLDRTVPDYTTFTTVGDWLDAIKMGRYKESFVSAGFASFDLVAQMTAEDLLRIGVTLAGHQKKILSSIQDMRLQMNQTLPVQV
In words: KINOMEscan competitive binding, whole panel. Particulars: 10 µM, n=1; kinase EPHB3; read-out: Percent inhibition EPHB3. The method, boiled down: as §1

For assay [6], the target named is T6, panel of 203 kinases (Homo sapiens, UniProt O94804).
T6 construct: purchased DiscoverX (KINOMEscan)
The assay can be described thus: KINOMEscan competitive binding, whole panel. Particulars: 10 µM, n=1; kinase LOK; read-out: Percent inhibition LOK. The method, boiled down:
as §1

Assay [7] has as its target T7, panel of 203 kinases (Homo sapiens, UniProt P54762).
T7 construct: purchased DiscoverX (KINOMEscan)
T7 sequence (P54762 18-984): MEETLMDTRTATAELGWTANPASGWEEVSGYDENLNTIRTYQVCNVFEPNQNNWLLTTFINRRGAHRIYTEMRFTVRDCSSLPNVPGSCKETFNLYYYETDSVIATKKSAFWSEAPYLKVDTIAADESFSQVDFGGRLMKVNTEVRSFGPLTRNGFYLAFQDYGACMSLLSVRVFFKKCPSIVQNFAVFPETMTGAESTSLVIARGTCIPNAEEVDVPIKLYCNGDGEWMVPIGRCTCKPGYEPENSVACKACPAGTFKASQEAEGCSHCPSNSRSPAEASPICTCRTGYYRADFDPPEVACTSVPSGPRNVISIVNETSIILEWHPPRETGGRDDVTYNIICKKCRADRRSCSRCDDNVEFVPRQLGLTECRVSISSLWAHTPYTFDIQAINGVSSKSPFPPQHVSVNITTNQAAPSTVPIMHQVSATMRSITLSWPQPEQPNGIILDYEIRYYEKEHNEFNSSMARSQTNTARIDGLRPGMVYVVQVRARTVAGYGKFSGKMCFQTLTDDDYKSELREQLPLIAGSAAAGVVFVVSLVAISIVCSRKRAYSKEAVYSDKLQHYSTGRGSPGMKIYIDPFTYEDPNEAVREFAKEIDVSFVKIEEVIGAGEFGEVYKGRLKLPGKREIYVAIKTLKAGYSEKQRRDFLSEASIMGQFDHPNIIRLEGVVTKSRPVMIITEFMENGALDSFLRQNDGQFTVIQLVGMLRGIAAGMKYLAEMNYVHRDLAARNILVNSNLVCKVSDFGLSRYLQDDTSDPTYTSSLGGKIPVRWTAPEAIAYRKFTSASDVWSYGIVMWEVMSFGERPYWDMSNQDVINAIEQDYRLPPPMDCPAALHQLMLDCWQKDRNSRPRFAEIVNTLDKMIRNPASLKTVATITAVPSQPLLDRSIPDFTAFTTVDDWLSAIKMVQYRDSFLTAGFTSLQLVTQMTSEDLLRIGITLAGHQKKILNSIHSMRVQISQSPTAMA
The assay can be described thus: KINOMEscan competitive binding, whole panel. Particulars: 10 µM, n=1; kinase EPHB1; read-out: Percent inhibition EPHB1. Summed up: as §1

Assay [8] has as its target T8, RPS6KA4(Kin.Dom.1) (Homo sapiens, UniProt O75676).
T8 construct: RPS6KA4(Kin.Dom.1); purchased DiscoverX (KINOMEscan)
T8 sequence (O75676 1-371 limits assumed): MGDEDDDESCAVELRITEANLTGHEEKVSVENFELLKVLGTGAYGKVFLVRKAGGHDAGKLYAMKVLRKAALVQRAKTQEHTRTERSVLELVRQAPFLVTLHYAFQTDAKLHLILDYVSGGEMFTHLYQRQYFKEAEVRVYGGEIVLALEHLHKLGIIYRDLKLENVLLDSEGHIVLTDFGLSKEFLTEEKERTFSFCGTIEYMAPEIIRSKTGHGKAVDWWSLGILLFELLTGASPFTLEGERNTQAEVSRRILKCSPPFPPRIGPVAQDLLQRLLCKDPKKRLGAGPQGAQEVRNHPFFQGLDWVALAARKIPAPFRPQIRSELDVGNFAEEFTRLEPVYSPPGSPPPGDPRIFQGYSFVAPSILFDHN
The assay can be described thus: KINOMEscan competitive binding. Particulars: n=1, read-out: Percent inhibition, RPS6KA4(Kin.Dom.1).

Broadly, the inhibition is how much of the control response was suppressed. Turning to `CN1CCN(c2ccc(Nc3nccc(-c4cnn5ncccc45)n3)cc2C#N)CC1` [Compound 1], the inhibition at 10 µM came to 98.9% in assay [1]; 99.8% in assay [2]; 91.9% in assay [3]; 0% in assay [4]; 0% in assay [5]; 88.7% in assay [6]. Also, the figures for the inhibition at 10 µM in assay [7] and in assay [8] were 99.3% and 0%, respectively.
As to `COc1ccc(Nc2nccc(-c3cnn4ncccc34)n2)cc1` [Compound 2], the inhibition at 10 µM in assay [1] was found to be 93.4%; in assay [2] it was 0%; in assay [3], 90.3%; in assay [4], 0%; in assay [5], 0%; in assay [6], 0%. In addition, the inhibition at 10 µM stood at 99.8% in assay [7] and 0% in assay [8].
`Cc1ccc(O)cc1Nc1ccnc(Nc2cccc(C(N)=O)c2)n1` [Compound 3]: the inhibition at 10 µM in assay [1] turned out to be 99.3%; in assay [2] it was 0%; in assay [3], 0%; in assay [4], 99.3%; in assay [5] it was 100%; in assay [6], 82.6%. Further, the inhibition at 10 µM was found to be 100% in assay [7] and 0% in assay [8].
For the compound `Cc1ccc(O)cc1N(C)c1ccnc(Nc2cccc(S(N)(=O)=O)c2)n1` [Compound 4], the inhibition at 10 µM in assay [1] is 99.6%; in assay [2] it was 0%; in assay [3] it was 90%; in assay [4], 99.7%; in assay [5], 100%; in assay [6], 99.6%. Besides, the inhibition at 10 µM is 100% in assay [7] and 0% in assay [8].
Take `Fc1cccc(COc2ccc(Nc3ncnc4c3CN(CCN3CCOCC3)CC4)cc2Cl)c1` [Compound 6]: the inhibition at 10 µM in assay [1], in assay [2], in assay [3], in assay [4], in assay [5] and in assay [6] was 0% throughout. The inhibition at 10 µM in assay [7] and in assay [8] was 0% each time.
As to `COc1cc(Nc2nccc(-c3sc(N)nc3-c3cccc(NC(=O)c4c(F)cccc4F)c3)n2)cc(OC)c1OC` [Compound 7], the inhibition at 10 µM in assay [1] is 99.9%; in assay [2], 0%; in assay [3], 80.6%; in assay [4] it was 0%; in assay [5] it was 0%; in assay [6], 100%. Further, the results for the inhibition at 10 µM in assay [7] and in assay [8] were 100% and 98.9%, respectively.
For `C[C@@H](Oc1cc(-c2cnc3ccccn23)sc1C(N)=O)c1ccccc1Cl` [Compound 8], the inhibition at 10 µM in assay [1] was 0%; in assay [2] it was 76.4%; in assay [3], 0%; in assay [4], 0%; in assay [5], 0%; in assay [6], 100%. Moreover, the inhibition at 10 µM in assay [7] and in assay [8] was 0% throughout.
`c1ccc(COc2cccc(-c3ccnc4[nH]ccc34)c2)cc1` [Compound 9]: the inhibition at 10 µM in assay [1], in assay [2], in assay [3], in assay [4], in assay [5] and in assay [6] was 0% throughout. For the same compound, the inhibition at 10 µM in assay [7] and in assay [8] was 0% in each case.
For `Clc1ccc(Nc2ncc(-c3ccccc3)s2)cc1` [Compound 10], the inhibition at 10 µM in assay [1], in assay [2], in assay [3], in assay [4], in assay [5] and in assay [6] was 0% each time. Moreover, the inhibition at 10 µM in assay [7] and in assay [8] was 0% each time.
As for `Nc1ncc2c(-c3ccncc3)c[nH]c2n1` [Compound 11], the inhibition at 10 µM was determined as 93.7% in assay [1]; 0% in assay [2]; 0% in assay [3]; 0% in assay [4]; 0% in assay [5]; 0% in assay [6]. The inhibition at 10 µM in assay [7] stood at 81.9%; in assay [8], 0%.
